Measured values reported in ChEMBL document CHEMBL5052842, “Pharmaceutical compounds and their use as inhibitors of ubiquitin specific protease 19 (usp19)” (2020).

molecular target: T1, Ubiquitin carboxyl-terminal hydrolase 19 (Homo sapiens, UniProt O94966); assay: Inhibition of C-terminal His6-tagged recombinant human USP19 using iso-peptide ubiquitin-Lys-TAMRA as substrate incubated for 30 mins and measured after 90 mins by fluorescent polarization assay
T1 sequence (O94966 whole entry): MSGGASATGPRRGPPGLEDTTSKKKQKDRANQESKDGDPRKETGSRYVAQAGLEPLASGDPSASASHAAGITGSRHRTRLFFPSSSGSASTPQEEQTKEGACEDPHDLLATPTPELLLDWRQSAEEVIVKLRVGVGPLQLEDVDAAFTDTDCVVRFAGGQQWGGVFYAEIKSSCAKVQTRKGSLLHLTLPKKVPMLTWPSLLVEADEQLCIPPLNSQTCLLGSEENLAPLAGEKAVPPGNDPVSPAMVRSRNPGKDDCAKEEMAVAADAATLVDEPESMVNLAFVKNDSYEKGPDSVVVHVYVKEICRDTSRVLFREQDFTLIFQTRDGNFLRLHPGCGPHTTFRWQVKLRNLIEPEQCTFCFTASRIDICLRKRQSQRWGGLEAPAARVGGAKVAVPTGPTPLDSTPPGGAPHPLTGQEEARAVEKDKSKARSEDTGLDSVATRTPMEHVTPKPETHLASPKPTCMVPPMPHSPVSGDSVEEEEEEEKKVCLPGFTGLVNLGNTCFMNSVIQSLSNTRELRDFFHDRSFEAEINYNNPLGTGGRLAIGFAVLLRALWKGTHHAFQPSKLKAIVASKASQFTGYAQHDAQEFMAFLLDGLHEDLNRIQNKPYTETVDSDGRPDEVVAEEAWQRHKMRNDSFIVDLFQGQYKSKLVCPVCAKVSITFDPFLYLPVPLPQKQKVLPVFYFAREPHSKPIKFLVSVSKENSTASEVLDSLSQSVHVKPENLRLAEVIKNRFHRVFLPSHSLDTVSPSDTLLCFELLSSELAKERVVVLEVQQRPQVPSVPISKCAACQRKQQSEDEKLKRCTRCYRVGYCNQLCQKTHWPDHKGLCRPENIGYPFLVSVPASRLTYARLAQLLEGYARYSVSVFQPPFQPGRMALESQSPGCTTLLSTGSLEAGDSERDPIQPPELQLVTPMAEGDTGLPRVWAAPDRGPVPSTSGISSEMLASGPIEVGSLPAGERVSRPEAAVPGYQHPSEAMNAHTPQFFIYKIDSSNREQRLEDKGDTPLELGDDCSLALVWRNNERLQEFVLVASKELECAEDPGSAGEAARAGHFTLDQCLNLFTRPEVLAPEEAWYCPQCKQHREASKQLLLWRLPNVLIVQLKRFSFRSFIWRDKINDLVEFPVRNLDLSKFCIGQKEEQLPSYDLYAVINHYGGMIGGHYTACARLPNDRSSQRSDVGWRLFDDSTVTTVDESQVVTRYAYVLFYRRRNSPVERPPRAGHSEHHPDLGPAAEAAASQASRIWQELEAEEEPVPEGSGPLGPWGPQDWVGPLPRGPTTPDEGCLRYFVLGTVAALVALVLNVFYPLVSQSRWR

IC50 [nM]	SMILES
< 500	O=C(N1CCC(O)(Cn2cnc3cc(F)c(F)cc3c2=O)C2(CCCC2)C1)N1CCNC[C@H]1c1ccccc1 (stereo not given in full)
< 500	O=C(N1CCC(O)(Cn2cnc3ccc(F)cc3c2=O)C2(CCCC2)C1)N1CCNC[C@H]1c1ccccc1 (stereo not given in full)
< 500	C[C@H](CC1CCCCC1)C(=O)N1CCC(O)(Cn2cc(C(=O)N(C)C)ncc2=O)C2(CCCC2)C1 (stereo not given in full)
< 500	C[C@H](CC1CCCCC1)C(=O)N1CCC(O)(Cn2cc([S+](C)[O-])c(-c3ccccc3)cc2=O)C2(CCCC2)C1 (stereo not given in full)
< 500	O=C(N1CCC(O)(Cn2cnc3c(cnn3Cc3ccccc3)c2=O)C2(CCCC2)C1)N1CCNC[C@H]1c1ccccc1 (stereo not given in full)
< 500	O=C(NCc1cccs1)N1CC[C@@](O)(Cn2cnc(-c3ccccc3)cc2=O)C2(CCCC2)C1
< 500	C[C@H](CC1CCCCC1)C(=O)N1CCC(O)(Cn2cc([S+](C)[O-])c(Cl)cc2=O)C2(CCCC2)C1 (stereo not given in full)
< 500	C[C@H](CC1CCCCC1)C(=O)N1CCC(O)(Cn2cc(N=S(C)(C)=O)c(-c3ccccc3)cc2=O)C2(CCCC2)C1 (stereo not given in full)
< 500	O=C(N1CC[C@@](O)(Cn2cnc(Cl)cc2=O)C2(CCCC2)C1)N1CCOC[C@H]1c1ccccc1
< 500	C[C@H](CC(F)(F)F)C(=O)N1CCC(O)(Cn2cc(N=S(C)(C)=O)c(-c3ccccc3)cc2=O)C2(CCCC2)C1 (stereo not given in full)
< 500	CN(C)C(=O)c1cn(CC2(O)CCN(C(=O)N(C)CC3CCCCC3)CC23CCCC3)c(=O)cc1-c1ccccc1 (stereo not given)
< 500	CCn1ncc2c(=O)n(CC3(O)CCN(C(=O)[C@H](C)CC4CCCCC4)CC34CCCC4)cnc21 (stereo not given in full)
< 500	O=C(NCc1ccccc1)N1CCC(O)(Cn2cnc(-c3ccccc3)cc2=O)C2(CCCC2)C1 (stereo not given)
< 500	CC(=O)N1CCN(CC2(O)CCN(C(=O)[C@H](C)CC3CCCCC3)CC23CCCC3)C(=O)C1 (stereo not given in full)
< 500	O=C(NCc1ccco1)N1CC[C@@](O)(Cn2cnc(-c3ccccc3)cc2=O)C2(CCCC2)C1
< 500	C[C@H](CC1CCCCC1)C(=O)N1CCC(O)(Cn2cnc3ccc(F)cc3c2=O)C2(CCCC2)C1 (stereo not given in full)
< 500	C[S+]([O-])c1cn(CC2(O)CCN(C(=O)N3CCNC[C@H]3c3ccccc3)CC23CCCC3)c(=O)cc1-c1ccccc1 (stereo not given in full)
< 500	O=C(N1CC[C@@](O)(Cn2ccc3ncncc3c2=O)C2(CCCC2)C1)N1CCNC[C@H]1c1ccccc1
< 500	CN(C)C(=O)c1cn(CC2(O)CCN(C(=O)NCc3ccccc3)CC23CCCC3)c(=O)cc1-c1ccccc1 (stereo not given)
< 500	C[C@H](CC1CCCCC1)C(=O)N1CCC(O)(Cn2cc(C(=O)N3CCNCC3)ncc2=O)C2(CCCC2)C1 (stereo not given in full)
< 500	C[C@H](CC1CCCCC1)C(=O)N1CCC(O)(Cn2cnc3cc(F)c(Cl)cc3c2=O)C2(CCCC2)C1 (stereo not given in full)
< 500	CSc1ncc2c(=O)n(CC3(O)CCN(C(=O)[C@H](C)CC4CCCCC4)CC34CCCC4)cnc2n1 (stereo not given in full)

IC50 [nM]	SMILES
< 500	O=C(NCc1ccccc1)N1CCC(O)(Cn2ccc(-c3ccccc3)cc2=O)C2(CCCC2)C1 (stereo not given)
< 500	O=C(N1CCC(O)(Cn2cnc3ccc(F)cc3c2=O)C2(CCCC2)C1)N1CCOC[C@H]1c1ccccc1 (stereo not given in full)
< 500	CSc1cn(CC2(O)CCN(C(=O)[C@H](C)CC3CCCCC3)CC23CCCC3)c(=O)cc1Cl (stereo not given in full)
< 500	C[C@H](CC1CCCCC1)C(=O)N1CCC(O)(Cn2cnc3cc(F)c(F)cc3c2=O)C2(CCCC2)C1 (stereo not given in full)
< 500	C[C@H](CC1CCCCC1)C(=O)N1CCC(O)(Cn2cnc3c(cnn3-c3ccccc3)c2=O)C2(CCCC2)C1 (stereo not given in full)
< 500	C[C@H](CC1CCCCC1)C(=O)N1CCC(O)(CN2CCN(c3ccccc3)CC2=O)C2(CCCC2)C1 (stereo not given in full)
< 500	C[C@H](CC1CCCCC1)C(=O)N1CCC(O)(Cn2cc(S(C)(=N)=O)c(Cl)cc2=O)C2(CCCC2)C1 (stereo not given in full)
< 500	O=C1CN(c2ccccc2)CCN1CC1(O)CCN(C(=O)NCc2ccccc2)CC12CCCC2 (stereo not given)
< 500	C[C@H](CC1CCCCC1)C(=O)N1CCC(O)(Cn2cc(S(C)(=N)=O)c(-c3ccccc3)cc2=O)C2(CCCC2)C1 (stereo not given in full)
< 500	O=C(N1CCC(O)(Cn2cnc3cc(F)c(F)cc3c2=O)C2(CCCC2)C1)N1CCOC[C@H]1c1ccccc1 (stereo not given in full)
< 500	O=C(N1CC[C@@](O)(Cn2cnc(-c3ccccc3)cc2=O)C2(CCCC2)C1)N1CCOC[C@H]1c1ccccc1
< 500	C[C@H](CC1CCCCC1)C(=O)N1CCC(O)(Cn2cc(S(C)(=O)=O)c(-c3ccccc3)cc2=O)C2(CCCC2)C1 (stereo not given in full)
< 500	C[C@H](CC1CCCCC1)C(=O)N1CCC(O)(Cn2cc(S(C)(=O)=O)c(Cl)cc2=O)C2(CCCC2)C1 (stereo not given in full)
< 500	Cn1ncc2c(=O)n(CC3(O)CCN(C(=O)N4CCNC[C@H]4c4ccccc4)CC34CCCC4)cnc21 (stereo not given in full)
< 500	CSc1cn(CC2(O)CCN(C(=O)[C@H](C)CC3CCCCC3)CC23CCCC3)c(=O)cc1-c1ccccc1 (stereo not given in full)
< 500	C[C@H](CC1CCCCC1)C(=O)N1CCC(O)(CN2CCN(C(=O)OC(C)(C)C)CC2=O)C2(CCCC2)C1 (stereo not given in full)
< 500	C[C@H](CC1CCCCC1)C(=O)N1CCC(O)(Cn2cc(Cl)ncc2=O)C2(CCCC2)C1 (stereo not given in full)
< 500	COC(=O)c1cn(CC2(O)CCN(C(=O)[C@H](C)CC3CCCCC3)CC23CCCC3)c(=O)cn1 (stereo not given in full)
< 500	CN(C)C(=O)C1CN(C[C@]2(O)CCN(C(=O)[C@H](CO)CC3CCCCC3)CC2(C)C)C(=O)CC1c1ccccc1 (stereo not given in full)
< 500	C[C@H](CC1CCCCC1)C(=O)N1CCC(O)(Cn2cnc3ccc(Cl)cc3c2=O)C2(CCCC2)C1 (stereo not given in full)
< 500	C[C@H](CC(F)(F)F)C(=O)N1CCC(O)(CN2CCN(c3ccccn3)CC2=O)C2(CCCC2)C1 (stereo not given in full)
< 500	O=C(N1CCC(O)(Cn2ccc3ccncc3c2=O)C2(CCCC2)C1)N1CCNC[C@H]1c1ccccc1 (stereo not given in full)

IC50 [nM]	SMILES
≤ 5000	COc1ccc2c(=O)n(CC3(O)CCN(C(=O)[C@H](C)CC4CCCCC4)CC34CCCC4)ccc2c1 (stereo not given in full)
< 500	O=C(N1CC[C@@](O)(Cn2cnc(-c3ccccc3)cc2=O)C2(CCCC2)C1)N1CCNC[C@@H]1c1ccccc1
< 500	CSc1ncc2c(=O)n(C[C@]3(O)CCN(C(=O)N4CCNC[C@H]4c4ccccc4)CC34CCCC4)ccc2n1
< 500	CN(C)C(=O)c1cn(CC2(O)CCN(C(=O)N3CCC(C(F)(F)F)C3)CC23CCCC3)c(=O)cc1-c1ccccc1 (stereo not given)
< 500	CSc1ncc2c(=O)n(CC3(O)CCN(C(=O)[C@H](C)CC4CCCCC4)CC34CCCC4)n(C)c2n1 (stereo not given in full)
< 500	CSc1cn(CC2(O)CCN(C(=O)N3CCNC[C@H]3c3ccccc3)CC23CCCC3)c(=O)cc1-c1ccccc1 (stereo not given in full)
< 500	CS(=O)(=O)c1cn(CC2(O)CCN(C(=O)N3CCNC[C@H]3c3ccccc3)CC23CCCC3)c(=O)cc1-c1ccccc1 (stereo not given in full)
< 500	C[C@H](CC1CCCCC1)C(=O)N1CCC(O)(Cn2cc(Br)ncc2=O)C2(CCCC2)C1 (stereo not given in full)
< 500	O=C(N1CC[C@@](O)(Cn2cnc(-c3ccccc3)cc2=O)C2(CCCC2)C1)N1CCC[C@H]1c1ccccc1
< 500	C[C@H](CC1CCCCC1)C(=O)N1CCC(O)(CN2CCOCC2=O)C2(CCCC2)C1 (stereo not given in full)
< 500	Cc1cn(CC2(O)CCN(C(=O)N3CCNC[C@H]3c3ccccc3)CC23CCCC3)c(=O)cn1 (stereo not given in full)
< 500	CSc1ncc2c(=O)n(CC3(O)CCN(C(=O)[C@H](C)CC(F)(F)F)CC34CCCC4)ccc2n1 (stereo not given in full)
< 500	CS(=N)(=O)c1cn(CC2(O)CCN(C(=O)N3CCOC[C@H]3c3ccccc3)CC23CCCC3)c(=O)cc1-c1ccccc1 (stereo not given in full)
< 500	CS(=N)(=O)c1cn(CC2(O)CCN(C(=O)N3CCNC[C@H]3c3ccccc3)CC23CCCC3)c(=O)cc1-c1ccccc1 (stereo not given in full)
< 500	CSc1ncc2c(=O)n(CC3(O)CCN(C(=O)[C@H](C)CC4CCCCC4)CC34CCCC4)ccc2n1 (stereo not given in full)
< 500	O=C(NCc1cccc(F)c1)N1CC[C@@](O)(Cn2cnc(-c3ccccc3)cc2=O)C2(CCCC2)C1
< 500	C[C@H](CC(F)(F)F)C(=O)N1CCC(O)(CN2CCN(c3ccccc3)CC2=O)C2(CCCC2)C1 (stereo not given in full)
< 500	O=C(N1CCC(O)(Cn2cnc3c(cnn3-c3ccccc3)c2=O)C2(CCCC2)C1)N1CCNC[C@H]1c1ccccc1 (stereo not given in full)
< 500	C[C@H](CC1CCCCC1)C(=O)N1CCC(O)(Cn2ccc3ccncc3c2=O)C2(CCCC2)C1 (stereo not given in full)
< 500	O=C(N1CCC(O)(Cn2cnc3c(cnn3C3CC3)c2=O)C2(CCCC2)C1)N1CCNC[C@H]1c1ccccc1 (stereo not given in full)
< 500	CN(C)C(=O)c1cn(CC2(O)CCN(C(=O)N(C)Cc3ccccc3)CC23CCCC3)c(=O)cc1-c1ccccc1 (stereo not given)
